Experimental data as given in patent publication US6169116A, “Amino-tetralines, pharmaceutical compositions containing them and their pharmaceutical uses” (Novartis AG, priority 1995, dated 2001).

Key:
[1] = test system: ischemia-induced neuronal damage (infarct size); assay: middle cerebral artery (MCA) occlusion model in rats; format: in vivo
Protocol: Furthermore, the agents of the invention reduce ischemia-induced neuronal damage and ensuing symptoms in the middle cerebral artery (MCA) occlusion model in rats at a dosage of 1-30 mg/kg i.p, i.v. and p.o. [cf. A. Tamura et al., J. Cereb. Blood Flow Metabol. 1, 53-60 (1981)), A. Sauter, M. Rudin, Stroke 17, 1228-1234 (1986)].
(§1) For all these indications the preferred compound is (R)-1,2,3,4-tetrahydro-8-methoxy-N,N-dimethyl-5-[4-(trifluoromethyl)phenyl]-2-naphthaleneamine, which is the compound of example 21. It has for example been determined that in the above mentioned electroshock model, this compound provides protection against maximal electroshock-induced convulsions with a threshold dose of 10 mg/kg p.o. for periods up to 8 hours post-administration.

[2] = test system: veratridine-induced glutamate release in rat hippocampal slice preparations; assay: veratridine-induced glutamate release in rat hippocampal slice preparations; format: cell-based; settings: for IC50: Rattus norvegicus, read-out: IC50, block of veratridine-induced glutamate release
Protocol: (§2) The agents of the invention display binding to the veratridine-sensitive sodium channel with IC50 S of from about 0.1 to about 100 μM. For the binding procedure see for example J. B. Brown, Journal of Neuroscience 6, 2064-2070 (1986). They block veratridine-induced glutamate release in rat hippocampal slice preparations at concentrations of about 0.1-1 μM.
The experiment is performed according to a modification of M. J. Leach et al. in Epilepsia 27, 490-497 (1986) and Stroke 24, 1063-1067 (1993), using exogenous glutamate.

[3] = target: veratridine-sensitive sodium channel; assay: binding to the veratridine-sensitive sodium channel; settings: read-out: IC50, affinity for the veratridine binding site
Protocol: as §2

[4] = test system: maximal electroshock-induced convulsions; assay: protection against maximal electroshock-induced convulsions in mice; format: in vivo
Protocol: The agents of the invention provide long-lasting protection against maximal electroshock-induced convulsions in mice at doses of about 1 to 100 mg/kg p.o. and about 0.32 to 32 mg/kg i.p. [cf. E. A. Swinyard, J. Am. Pharm. Assoc. Scient. Ed. 38, 201 (1949) and J. Pharmacol. Exptl. Therap. 106, 319 (1952)].
as §1

[5] = 10 mg/kg i.p., immediately after occlusion

Q: Which results are given for `COc1ccc(-c2ccc(C(F)(F)F)cc2)c2c1C[C@H](N(C)C)CC2` [Example 21, (R)-1,2,3,4-tetrahydro-8-methoxy-N,N-dimethyl-5-[4-(trifluoromethyl)phenyl]-2-naphthaleneamine]?
A: infarct size reduction ([1]; 3.2 mg/kg i.p. immediately after occlusion): 19%; infarct size reduction [1, 5]: 43%; infarct size reduction ([1]; 32 mg/kg i.p. immediately after occlusion): 53%; IC50 [2]: 0.5 µM; potency relative to Lifarizine in the veratridine-induced glutamate release test ([2]; compared with Lifarizine): about equipotent to Lifarizine; IC50 [3]: 0.125 µM; minimal effective dose ([4]; Mus musculus, po, read-out: threshold dose for protection against maximal electroshock-induced convulsions): 10 mg/kg; period of protection against maximal electroshock-induced convulsions post-administration ([4]; p.o., threshold dose 10 mg/kg): up to 8 hours

Q: How did the IC50 [2] turn out when `Nc1nnc(-c2cccc(Cl)c2Cl)c(N)n1` [Lamotrigine, reference compound] was run?
A: The IC50 was 20 µM.

Q: How did the infarct size reduction [1, 5] turn out when `Cc1ccc(-c2nc(C)c(CN3CCN(C(c4ccccc4)c4ccccc4)CC3)[nH]2)cc1` [Lifarizine, reference compound] was run?
A: The infarct size reduction was 25%.

Q: `Nc1nc2ccc(OC(F)(F)F)cc2s1` [Riluzole, reference compound] was tested. Which IC50 [2] did it give?
A: Its IC50 is 5 µM.
